{
  "source": "patent US8933230B2",
  "about": "“Phosphorus-containing group-substituted quinoline, its preparation process, medical composition containing the compounds and application” (priority 2011, dated 2015)",
  "experiment_in_all_cases": "KinomeScan kinase panel",
  "assay_type_in_all_cases": "binding",
  "key": {"[1]": {"target": "T1, PRKCI (Homo sapiens, UniProt P41743)", "T1 construct": "purchased DiscoveRx Corporation (KinomeScan)", "procedure": "(§1) In this example, the compound prepared in Example 10, N1-[4-[[7-[[1-(diethoxyphosphorylmethyl)-4-piperidinyl]methoxyl]-6-methoxyl-4-quinolyl]oxyl]-3-fluorophenyl]-N1′-(4-fluorophenyl)cyclopropane-1,1-dicarboxamide is tested for the inhibitory effect in the 442-kinase panel of KinomeScan™ (www.kinomescan.com) from DiscoveRx Corporation (4215 Sorrento Valley Blvd, San Diego, Calif. 92121) at 1000 nM of the compound concentration, the results are shown in the following Table 5:\n(§2) For the detailed information of the screening technique, see Fabian, M. A. et al, Nat., Biotechnol. 2005, 23, 329 and Karaman, M. W. et al, Nat., Biotechnol. 2008, 26, 127. It can be seen from the following representative results that, the compound according to the present invention has significant inhibitory effect on kinases including c-Met, KDR or VEGFR2, RET, PDGFR-β, c-KIT, Flt3, MEK5, DDR1, LOK, CSF1R, EPHA7, EPHA8, EPHB6, MKNK2, BLK, HIPK4, HCK, Flt4 and the mutants thereof"}, "[2]": {"target": "T2, PRKCH (Homo sapiens, UniProt P24723)", "T2 construct": "purchased DiscoveRx Corporation (KinomeScan)", "procedure": "as §1, §2"}, "[3]": {"target": "T3, IRAK1 (Homo sapiens, UniProt P51617)", "T3 construct": "purchased DiscoveRx Corporation (KinomeScan)", "procedure": "as §1, §2"}, "[4]": {"target": "T4, ERBB4 (Homo sapiens, UniProt Q15303)", "T4 construct": "purchased DiscoveRx Corporation (KinomeScan)", "T4 sequence (Q15303 26-1308)": "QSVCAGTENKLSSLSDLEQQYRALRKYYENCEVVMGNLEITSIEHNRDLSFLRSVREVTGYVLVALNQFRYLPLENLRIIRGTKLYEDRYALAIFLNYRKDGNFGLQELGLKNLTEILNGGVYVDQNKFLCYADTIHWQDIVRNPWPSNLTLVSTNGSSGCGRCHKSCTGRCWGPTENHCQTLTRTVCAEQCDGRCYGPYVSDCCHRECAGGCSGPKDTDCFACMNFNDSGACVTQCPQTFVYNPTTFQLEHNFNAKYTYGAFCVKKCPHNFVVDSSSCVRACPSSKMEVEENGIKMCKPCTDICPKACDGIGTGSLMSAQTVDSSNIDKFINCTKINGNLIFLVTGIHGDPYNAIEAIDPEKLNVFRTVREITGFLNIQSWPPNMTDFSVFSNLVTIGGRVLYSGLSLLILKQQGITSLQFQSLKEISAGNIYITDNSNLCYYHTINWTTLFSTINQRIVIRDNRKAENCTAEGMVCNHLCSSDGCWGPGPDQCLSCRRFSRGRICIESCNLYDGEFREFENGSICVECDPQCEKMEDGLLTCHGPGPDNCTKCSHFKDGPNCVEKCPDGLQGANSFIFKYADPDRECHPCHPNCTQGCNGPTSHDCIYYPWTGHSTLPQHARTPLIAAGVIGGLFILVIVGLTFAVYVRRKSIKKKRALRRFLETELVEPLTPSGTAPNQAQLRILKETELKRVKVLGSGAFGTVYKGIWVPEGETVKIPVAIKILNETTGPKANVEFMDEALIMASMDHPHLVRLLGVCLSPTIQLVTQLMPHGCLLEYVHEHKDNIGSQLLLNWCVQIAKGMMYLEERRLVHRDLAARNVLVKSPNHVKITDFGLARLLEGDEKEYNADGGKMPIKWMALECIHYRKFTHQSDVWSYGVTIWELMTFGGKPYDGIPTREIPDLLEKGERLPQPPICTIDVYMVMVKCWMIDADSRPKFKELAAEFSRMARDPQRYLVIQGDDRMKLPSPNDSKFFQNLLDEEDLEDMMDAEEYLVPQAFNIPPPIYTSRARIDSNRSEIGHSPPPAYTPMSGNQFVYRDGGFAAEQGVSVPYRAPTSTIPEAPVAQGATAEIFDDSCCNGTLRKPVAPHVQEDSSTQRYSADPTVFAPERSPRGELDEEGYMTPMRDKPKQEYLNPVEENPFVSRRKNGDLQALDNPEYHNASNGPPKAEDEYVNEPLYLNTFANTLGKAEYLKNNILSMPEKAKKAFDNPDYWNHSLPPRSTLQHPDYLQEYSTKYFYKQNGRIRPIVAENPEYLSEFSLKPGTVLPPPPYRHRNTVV", "procedure": "as §1, §2"}, "[5]": {"target": "T5, ACVR1 (Homo sapiens, UniProt Q04771)", "T5 construct": "purchased DiscoveRx Corporation (KinomeScan)", "T5 sequence (Q04771 21-509)": "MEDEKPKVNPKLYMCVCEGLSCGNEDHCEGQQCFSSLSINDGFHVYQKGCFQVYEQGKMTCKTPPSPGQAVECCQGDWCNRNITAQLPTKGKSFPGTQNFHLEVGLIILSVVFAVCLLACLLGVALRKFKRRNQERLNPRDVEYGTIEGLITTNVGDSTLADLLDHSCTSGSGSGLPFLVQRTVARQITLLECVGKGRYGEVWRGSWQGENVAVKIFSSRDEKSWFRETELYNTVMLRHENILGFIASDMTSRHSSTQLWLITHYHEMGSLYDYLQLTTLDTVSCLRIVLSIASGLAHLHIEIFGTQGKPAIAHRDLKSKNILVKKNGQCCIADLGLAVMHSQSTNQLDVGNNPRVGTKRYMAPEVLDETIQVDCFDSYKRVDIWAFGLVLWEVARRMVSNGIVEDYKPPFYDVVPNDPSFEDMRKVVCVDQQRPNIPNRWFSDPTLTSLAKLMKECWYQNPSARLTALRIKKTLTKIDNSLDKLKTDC", "procedure": "as §1, §2"}, "[6]": {"target": "T6, TESK1 (Homo sapiens, UniProt Q15569)", "T6 construct": "purchased DiscoveRx Corporation (KinomeScan)", "procedure": "as §1, §2"}, "[7]": {"target": "T7, NDR1 (Homo sapiens, UniProt Q15208)", "T7 construct": "purchased DiscoveRx Corporation (KinomeScan)", "procedure": "as §1, §2"}, "[8]": {"target": "T8, MAPKAPK5 (Homo sapiens, UniProt Q8IW41)", "T8 construct": "purchased DiscoveRx Corporation (KinomeScan)", "procedure": "as §1, §2"}, "[9]": {"target": "T9, SRMS (Homo sapiens, UniProt Q9H3Y6)", "T9 construct": "purchased DiscoveRx Corporation (KinomeScan)", "procedure": "as §1, §2"}, "[10]": {"target": "T10, CASK (Homo sapiens, UniProt O14936)", "T10 construct": "purchased DiscoveRx Corporation (KinomeScan)", "procedure": "as §1, §2"}, "[11]": {"target": "T11, FLT4 (Homo sapiens, UniProt P35916)", "T11 construct": "purchased DiscoveRx Corporation (KinomeScan)", "procedure": "as §1, §2"}, "[12]": {"target": "T12, MTOR (Homo sapiens, UniProt P42345)", "T12 construct": "purchased DiscoveRx Corporation (KinomeScan)", "procedure": "as §1, §2"}, "[13]": {"target": "T13, GRK4 (Homo sapiens, UniProt P32298)", "T13 construct": "purchased DiscoveRx Corporation (KinomeScan)", "procedure": "as §1, §2"}, "[14]": {"target": "T14, NEK7 (Homo sapiens, UniProt Q8TDX7)", "T14 construct": "purchased DiscoveRx Corporation (KinomeScan panel)", "procedure": "as §1, §2"}, "[15]": {"target": "T15, MEK3 (Homo sapiens, UniProt P46734)", "T15 construct": "purchased DiscoveRx Corporation (KinomeScan)", "procedure": "as §1, §2"}, "[16]": {"target": "T16, BMPR1A (Homo sapiens, UniProt P36894)", "T16 construct": "purchased DiscoveRx Corporation (KinomeScan)", "T16 sequence (P36894 24-532)": "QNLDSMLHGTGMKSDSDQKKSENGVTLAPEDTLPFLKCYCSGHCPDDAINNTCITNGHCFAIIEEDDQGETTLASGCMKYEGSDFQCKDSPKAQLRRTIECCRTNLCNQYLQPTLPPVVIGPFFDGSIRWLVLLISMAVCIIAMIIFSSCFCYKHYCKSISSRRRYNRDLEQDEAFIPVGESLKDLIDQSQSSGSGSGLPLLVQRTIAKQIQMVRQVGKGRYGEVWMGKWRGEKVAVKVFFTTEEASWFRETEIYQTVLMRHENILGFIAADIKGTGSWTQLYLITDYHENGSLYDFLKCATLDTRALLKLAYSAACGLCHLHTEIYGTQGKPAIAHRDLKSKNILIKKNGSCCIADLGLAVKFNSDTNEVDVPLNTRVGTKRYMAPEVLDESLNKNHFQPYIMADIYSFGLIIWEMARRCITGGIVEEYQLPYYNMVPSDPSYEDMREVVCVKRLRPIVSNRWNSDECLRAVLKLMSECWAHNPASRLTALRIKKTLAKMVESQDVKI", "procedure": "as §1, §2"}, "[17]": {"target": "T17, GCN2(kin.dom.2.S808G) (Homo sapiens, UniProt Q9P2K8, S808G)", "T17 construct": "GCN2(kin.dom.2.S808G); purchased DiscoveRx Corporation (KinomeScan)", "T17 sequence (Q9P2K8 590-1001 S808G limits assumed)": "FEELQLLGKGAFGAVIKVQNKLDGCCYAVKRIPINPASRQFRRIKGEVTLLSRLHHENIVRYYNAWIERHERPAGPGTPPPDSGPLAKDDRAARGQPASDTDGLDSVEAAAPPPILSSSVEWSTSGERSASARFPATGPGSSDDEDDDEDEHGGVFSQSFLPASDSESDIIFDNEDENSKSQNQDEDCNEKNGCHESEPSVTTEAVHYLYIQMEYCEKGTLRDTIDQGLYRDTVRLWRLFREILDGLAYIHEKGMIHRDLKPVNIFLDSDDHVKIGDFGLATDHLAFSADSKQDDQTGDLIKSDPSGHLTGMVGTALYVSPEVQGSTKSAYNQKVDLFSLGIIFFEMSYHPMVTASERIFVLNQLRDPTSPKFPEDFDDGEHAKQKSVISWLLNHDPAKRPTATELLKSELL", "procedure": "as §1, §2"}, "[18]": {"target": "T18, CLK1 (Homo sapiens, UniProt P49759)", "T18 construct": "purchased DiscoveRx Corporation (KinomeScan)", "procedure": "as §1, §2"}, "[19]": {"target": "T19, IKK-alpha (Homo sapiens, UniProt O15111)", "T19 construct": "purchased DiscoveRx Corporation (KinomeScan)", "procedure": "as §1, §2"}, "[20]": {"target": "T20, SGK3 (Homo sapiens, UniProt Q96BR1)", "T20 construct": "purchased DiscoveRx Corporation (KinomeScan)", "procedure": "as §1, §2"}, "[21]": {"target": "T21, TAOK1 (Homo sapiens, UniProt Q7L7X3)", "T21 construct": "purchased DiscoveRx Corporation (KinomeScan)", "procedure": "as §1, §2"}, "[22]": {"target": "T22, TLK1 (Homo sapiens, UniProt Q9UKI8)", "T22 construct": "purchased DiscoveRx Corporation (KinomeScan)", "procedure": "as §1, §2"}, "[23]": {"target": "T23, BLK (Homo sapiens, UniProt P51451)", "T23 construct": "purchased DiscoveRx Corporation (KinomeScan)", "procedure": "as §1, §2"}, "[24]": {"target": "T24, PLK4 (Homo sapiens, UniProt O00444)", "T24 construct": "purchased DiscoveRx Corporation (KinomeScan)", "procedure": "as §1, §2"}, "[25]": {"target": "T25, PRKD2 (Homo sapiens, UniProt Q9BZL6)", "T25 construct": "purchased DiscoveRx Corporation (KinomeScan)", "procedure": "as §1, §2"}, "[26]": {"target": "T26, GSK3B (Homo sapiens, UniProt P49841)", "T26 construct": "purchased DiscoveRx Corporation (KinomeScan)", "procedure": "as §1, §2"}, "[27]": {"target": "T27, CAMK2G (Homo sapiens, UniProt Q13555)", "T27 construct": "purchased DiscoveRx Corporation (KinomeScan)", "procedure": "as §1, §2"}, "[28]": {"target": "T28, DMPK2 (Homo sapiens, UniProt Q6DT37)", "T28 construct": "purchased DiscoveRx Corporation (KinomeScan)", "procedure": "as §1, §2"}, "[29]": {"target": "T29, ABL1(Q252H)-phosphorylated (Homo sapiens, UniProt P00519, Q252H)", "T29 construct": "purchased DiscoveRx Corporation (KinomeScan)", "procedure": "as §1, §2"}, "[30]": {"target": "T30, CAMK1 (Homo sapiens, UniProt Q14012)", "T30 construct": "purchased DiscoveRx Corporation (KinomeScan)", "procedure": "as §1, §2"}, "[31]": {"target": "T31, ACVRL1 (Homo sapiens, UniProt P37023)", "T31 construct": "purchased DiscoveRx Corporation (KinomeScan)", "procedure": "as §1, §2"}, "[32]": {"target": "T32, NIM1 (Homo sapiens, UniProt Q8IY84)", "T32 construct": "purchased DiscoveRx Corporation (KinomeScan panel)", "procedure": "as §1, §2"}, "[33]": {"target": "T33, MET(Y1235D) (Homo sapiens, UniProt P08581, Y1235D)", "T33 construct": "purchased DiscoveRx Corporation (KinomeScan)", "procedure": "as §1, §2"}, "[34]": {"target": "T34, MARK1 (Homo sapiens, UniProt Q9P0L2)", "T34 construct": "purchased DiscoveRx Corporation (KinomeScan)", "T34 sequence (Q9P0L2 whole entry)": "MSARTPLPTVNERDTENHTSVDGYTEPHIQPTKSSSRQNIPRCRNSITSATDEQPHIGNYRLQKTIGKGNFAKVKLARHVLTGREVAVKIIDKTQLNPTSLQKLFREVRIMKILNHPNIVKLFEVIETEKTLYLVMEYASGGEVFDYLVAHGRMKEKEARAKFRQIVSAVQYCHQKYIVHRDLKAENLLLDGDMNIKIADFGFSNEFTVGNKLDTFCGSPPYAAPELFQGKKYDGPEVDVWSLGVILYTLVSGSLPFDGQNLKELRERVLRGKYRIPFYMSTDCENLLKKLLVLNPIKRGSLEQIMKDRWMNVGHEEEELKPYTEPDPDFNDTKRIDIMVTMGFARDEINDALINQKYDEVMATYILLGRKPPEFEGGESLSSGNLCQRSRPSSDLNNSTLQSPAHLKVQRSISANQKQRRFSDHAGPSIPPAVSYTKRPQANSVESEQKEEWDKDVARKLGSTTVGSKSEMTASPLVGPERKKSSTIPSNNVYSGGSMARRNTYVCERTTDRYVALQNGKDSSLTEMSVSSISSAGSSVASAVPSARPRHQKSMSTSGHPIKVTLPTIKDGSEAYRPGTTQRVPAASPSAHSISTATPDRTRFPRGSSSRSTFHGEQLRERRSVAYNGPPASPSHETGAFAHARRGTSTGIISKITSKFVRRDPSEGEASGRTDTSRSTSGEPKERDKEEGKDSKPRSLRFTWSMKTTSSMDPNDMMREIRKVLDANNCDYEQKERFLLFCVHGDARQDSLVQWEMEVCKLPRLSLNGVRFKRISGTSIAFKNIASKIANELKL", "procedure": "as §1, §2"}, "[35]": {"target": "T35, DRAK1 (Homo sapiens, UniProt Q9UEE5)", "T35 construct": "purchased DiscoveRx Corporation (KinomeScan)", "T35 sequence (Q9UEE5 whole entry)": "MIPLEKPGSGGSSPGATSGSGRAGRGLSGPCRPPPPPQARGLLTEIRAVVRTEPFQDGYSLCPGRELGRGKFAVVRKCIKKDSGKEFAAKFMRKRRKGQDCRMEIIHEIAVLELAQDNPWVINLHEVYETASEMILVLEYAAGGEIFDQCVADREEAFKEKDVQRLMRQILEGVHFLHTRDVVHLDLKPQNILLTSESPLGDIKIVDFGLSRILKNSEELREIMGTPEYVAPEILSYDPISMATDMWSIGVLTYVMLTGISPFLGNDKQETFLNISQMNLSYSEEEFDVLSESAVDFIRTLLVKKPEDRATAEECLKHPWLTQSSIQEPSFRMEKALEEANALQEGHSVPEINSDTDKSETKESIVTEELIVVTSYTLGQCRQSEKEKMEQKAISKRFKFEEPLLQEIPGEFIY", "procedure": "as §1, §2"}, "[36]": {"target": "T36, MLCK (Homo sapiens, UniProt Q32MK0)", "T36 construct": "purchased DiscoveRx Corporation (KinomeScan)", "T36 sequence (Q32MK0 whole entry)": "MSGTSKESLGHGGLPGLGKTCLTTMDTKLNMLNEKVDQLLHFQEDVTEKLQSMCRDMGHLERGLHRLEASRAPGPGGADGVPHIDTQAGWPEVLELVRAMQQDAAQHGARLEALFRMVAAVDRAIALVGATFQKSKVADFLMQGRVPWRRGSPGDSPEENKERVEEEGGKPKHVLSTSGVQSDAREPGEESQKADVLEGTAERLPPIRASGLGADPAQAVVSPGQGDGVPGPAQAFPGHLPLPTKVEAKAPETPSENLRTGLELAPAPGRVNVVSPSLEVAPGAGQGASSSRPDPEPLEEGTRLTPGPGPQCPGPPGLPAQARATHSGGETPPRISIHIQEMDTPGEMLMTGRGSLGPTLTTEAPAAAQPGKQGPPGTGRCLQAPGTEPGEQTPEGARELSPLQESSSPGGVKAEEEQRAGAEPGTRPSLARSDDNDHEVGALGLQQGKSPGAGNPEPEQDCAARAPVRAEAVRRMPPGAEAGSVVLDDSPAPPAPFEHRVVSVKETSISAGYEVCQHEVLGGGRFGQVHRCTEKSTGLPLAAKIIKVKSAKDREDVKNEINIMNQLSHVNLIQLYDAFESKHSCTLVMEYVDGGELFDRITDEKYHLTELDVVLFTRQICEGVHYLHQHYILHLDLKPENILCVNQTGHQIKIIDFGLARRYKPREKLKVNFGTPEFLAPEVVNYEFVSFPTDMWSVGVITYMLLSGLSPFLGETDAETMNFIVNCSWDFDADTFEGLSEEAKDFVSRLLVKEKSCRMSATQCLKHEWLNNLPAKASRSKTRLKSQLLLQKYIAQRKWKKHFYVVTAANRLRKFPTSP", "procedure": "as §1, §2"}},
  "data": [
    {"smiles": "CCOP(=O)(CN1CCC(COc2cc3nccc(Oc4ccc(NC(=O)C5(C(=O)Nc6ccc(F)cc6)CC5)cc4F)c3cc2OC)CC1)OCC", "note": "[Example 10, N1-[4-[[7-[[1-(diethoxyphosphorylmethyl)-4-piperidinyl]methoxyl]-6-methoxyl-4-quinolyl]oxyl]-3-fluorophenyl]-N1′-(4-fluorophenyl)cyclopropane-1,1-dicarboxamide]", "values": [
      {"measurement": "% Ctrl@1000 nM", "setting": "[1]", "value": 100, "unit": "% Ctrl"},
      {"measurement": "% Ctrl@1000 nM", "setting": "[2]", "value": 100, "unit": "% Ctrl"},
      {"measurement": "% Ctrl@1000 nM", "setting": "[3]", "value": 100, "unit": "% Ctrl"},
      {"measurement": "% Ctrl@1000 nM", "setting": "[4]", "value": 100, "unit": "% Ctrl"},
      {"measurement": "% Ctrl@1000 nM", "setting": "[5]", "value": 100, "unit": "% Ctrl"},
      {"measurement": "% Ctrl@1000 nM", "setting": "[6]", "value": 39, "unit": "% Ctrl"},
      {"measurement": "% Ctrl@1000 nM", "setting": "[7]", "value": 100, "unit": "% Ctrl"},
      {"measurement": "% Ctrl@1000 nM", "setting": "[8]", "value": 100, "unit": "% Ctrl"},
      {"measurement": "% Ctrl@1000 nM", "setting": "[9]", "value": 8.9, "unit": "% Ctrl"},
      {"measurement": "% Ctrl@1000 nM", "setting": "[10]", "value": 100, "unit": "% Ctrl"},
      {"measurement": "% Ctrl@1000 nM", "setting": "[11]", "value": 0.2, "unit": "% Ctrl"},
      {"measurement": "% Ctrl@1000 nM", "setting": "[12]", "value": 100, "unit": "% Ctrl"},
      {"measurement": "% Ctrl@1000 nM", "setting": "[13]", "value": 78, "unit": "% Ctrl"},
      {"measurement": "% Ctrl@1000 nM", "setting": "[14]", "value": 100, "unit": "% Ctrl"},
      {"measurement": "% Ctrl@1000 nM", "setting": "[15]", "value": 100, "unit": "% Ctrl"},
      {"measurement": "% Ctrl@1000 nM", "setting": "[16]", "value": 100, "unit": "% Ctrl"},
      {"measurement": "% Ctrl@1000 nM", "setting": "[17]", "value": 100, "unit": "% Ctrl"},
      {"measurement": "% Ctrl@1000 nM", "setting": "[18]", "value": 89, "unit": "% Ctrl"},
      {"measurement": "% Ctrl@1000 nM", "setting": "[19]", "value": 100, "unit": "% Ctrl"},
      {"measurement": "% Ctrl@1000 nM", "setting": "[20]", "value": 75, "unit": "% Ctrl"},
      {"measurement": "% Ctrl@1000 nM", "setting": "[21]", "value": 100, "unit": "% Ctrl"},
      {"measurement": "% Ctrl@1000 nM", "setting": "[22]", "value": 88, "unit": "% Ctrl"},
      {"measurement": "% Ctrl@1000 nM", "setting": "[23]", "value": 0.5, "unit": "% Ctrl"},
      {"measurement": "% Ctrl@1000 nM", "setting": "[24]", "value": 7.4, "unit": "% Ctrl"},
      {"measurement": "% Ctrl@1000 nM", "setting": "[25]", "value": 100, "unit": "% Ctrl"},
      {"measurement": "% Ctrl@1000 nM", "setting": "[26]", "value": 100, "unit": "% Ctrl"},
      {"measurement": "% Ctrl@1000 nM", "setting": "[27]", "value": 100, "unit": "% Ctrl"},
      {"measurement": "% Ctrl@1000 nM", "setting": "[28]", "value": 76, "unit": "% Ctrl"},
      {"measurement": "% Ctrl@1000 nM", "setting": "[29]", "value": 84, "unit": "% Ctrl"},
      {"measurement": "% Ctrl@1000 nM", "setting": "[30]", "value": 78, "unit": "% Ctrl"},
      {"measurement": "% Ctrl@1000 nM", "setting": "[31]", "value": 100, "unit": "% Ctrl"},
      {"measurement": "% Ctrl@1000 nM", "setting": "[32]", "value": 100, "unit": "% Ctrl"},
      {"measurement": "% Ctrl@1000 nM", "setting": "[33]", "value": 4.4, "unit": "% Ctrl"},
      {"measurement": "% Ctrl@1000 nM", "setting": "[34]", "value": 100, "unit": "% Ctrl"},
      {"measurement": "% Ctrl@1000 nM", "setting": "[35]", "value": 100, "unit": "% Ctrl"},
      {"measurement": "% Ctrl@1000 nM", "setting": "[36]", "value": 100, "unit": "% Ctrl"}
    ]}
  ]
}
